Laboratory results as given in article PMC12040169 (PLOS Biology, 2025).

assay: in vitro; conditions: human, hela cells, % viability

Row | SMILES | viability at 28.5 h, 10 µM [%]
1 | Cc1nc(=O)c(-c2ccccc2)c(C)n1CCCCCC(=O)O [CBK287060] | 113
2 | CC(=O)Nc1ccc(S(=O)(=O)Nc2ccc(C(=O)N3CCN(C)CC3)cc2)cc1 [CBK050406] | 93.1
3 | O=C(c1ccco1)N1CCC[C@@H]1Cn1c(=O)oc2ccccc21 [CBK284538] | 87.6
4 | Cc1ccc(S(=O)(=O)N(CC(=O)Nc2ccc(Cl)cc2C)c2cccc(Cl)c2C)cc1 [CBK264021] | 85.7
5 | O=C(O)CC/C(=N\NC(=O)c1cccnc1)c1ccccc1 [CBK261305] | 97.2
6 | CCNC(=O)Nc1ccc2ccc(-c3cccnc3)nc2n1 [CBK070652] | 85
7 | N#Cc1ccc(CSc2cccc(F)c2)cc1 [CBK002918] | 109
8 | O=C(O)CC(NS(=O)(=O)c1cccc([N+](=O)[O-])c1)c1ccccc1 (centres unmarked) [CBK262641] | 96.4
9 | CC1CN(Cc2c(C(F)(F)F)[nH]c3ncccc23)CC(C)O1 (centres unmarked) [CBK285344] | 88.5
10 | O=C(O)CCc1ccc(S(=O)(=O)Nc2ccc(N3CCCC3=O)cc2)cc1 [CBK295647] | 106
11 | COc1ccc(Cl)cc1N1CCN(Cc2ccc3ccccc3c2)CC1 [CBK126414] | 116
12 | COc1ccc(CCC2CCN(C)CC2)c(O)c1 [CBK283668] | 104
13 | CC1CC1C(=O)N(C)C1CCN(c2ncnc3ccccc23)CC1 (centres unmarked) [CBK304972] | 83.3
14 | CCC(CO)Nc1cncc(-c2ccccc2CO)n1 (centres unmarked) [CBK065775] | 103
15 | COc1ccc(/C(N)=N/OC(=O)CN(C)S(=O)(=O)c2ccccc2)cc1 [CBK267683] | 93
16 | COc1ccc(CCN2CCN(c3nccnc3OCC3COc4ccccc4O3)CC2)cc1OC (centres unmarked) [CBK082808T] | 104
17 | Cc1noc(C)c1NC(=O)c1cnccc1C(F)(F)F [CBK200306] | 99.1
18 | CCc1ccc(CN(C)C(=O)COC(=O)c2cc(-c3ccccc3)nc3onc(C)c23)cc1 [CBK295334] | 89.5
19 | COC(=O)c1cn(C(=O)c2snnc2C)nc1C(C)(C)C [CBK021420] | 89.2
20 | O=C(Nc1ccc(F)cc1)N[C@H]1[C@H](O)[C@@H](N2CCCCC2)[C@@H]2OC[C@H]1O2 [CBK288826] | 98.5
21 | CCC(=O)Nc1ccc(-c2csc(N(C)C)n2)cc1 [CBK304294C] | 103
22 | Cc1ccc(-n2nnc(C(=O)N3CCCCC3C(=O)O)c2C)cc1 (centres unmarked) [CBK304109] | 87.7
23 | O=c1[nH]c2ncc(-c3ccsc3)nc2n1Cc1ccccc1 [CBK064227] | 96.7

Row | SMILES | viability at 28.5 h, 10 µM [%]
24 | CN(C)c1ccccc1-c1cc(N2CCN(S(=O)(=O)c3ccc(Cl)cc3)CC2)ncn1 [CBK037039] | 81.7
25 | COc1cccc(NC(=O)CCN2CCN(CCO)CC2)c1 [CBK264207C] | 88.3
26 | Cc1nc2ccccc2c(C)c1C(=O)OCc1nc(N)nc(N(C)C)n1 [CBK295627] | 70.6
27 | Cc1cc2ncc3c(n2n1)CC1CCC3N1Cc1ccc(F)c(F)c1 (centres unmarked) [CBK284378] | 90.9
28 | N#CCCCN1CCC2(CC1)CN(CC(N)=O)c1ccccc12 [CBK137024] | 97.7
29 | Cc1nn([C@H]2C[C@@H](O)[C@@H](CO)O2)c(=O)[nH]c1=O [CBK201185] | 97.3
30 | Cc1ccc(C(=O)N(C)Cc2cc(-c3ccncc3)no2)c(=O)n1C [CBK307324] | 83.7
31 | COc1ccc(C(=O)CN2CCN(CCN3C(=O)c4cccc5cccc(c45)C3=O)CC2)cc1 [CBK074628] | 75.7
32 | CCNc1nccnc1-c1cccc(O)c1 [CBK088593] | 103
33 | Nc1ncnc2c1nc1n2[C@H]2C[C@@H](O)[C@H](O2)C1=O [CBK201259] | 98.2
34 | O=C(CSc1nc(=O)cc(O)[nH]1)N1CCc2ccccc21 [CBK269350] | 88.7
35 | Cc1nc(C(=O)NCC2CN3CCCN2CC3)ccc1C(=O)O (centres unmarked) [CBK304242] | 94
36 | O=C(CSc1nc2ccccc2c(=O)[nH]1)Nc1ccccc1O [CBK269738] | 104
37 | CCOC(=O)Nc1ccc2c(c1)N(C(=O)CCN1CCOCC1)c1ccccc1CC2 [CBK261291C] | 103
38 | O=C(CC(C(=O)O)n1cncn1)c1ccc(Br)cc1 (centres unmarked) [CBK269305] | 103
39 | O=C(NCCCNC(=O)c1ccccn1)c1ccc(Cl)cc1 [CBK269193] | 88.5
40 | Cc1cc(C(=O)NC(C)c2ccccn2)c2ccccc2n1 (centres unmarked) [CBK281826] | 96.9
41 | Cc1nc(CN2CCCC(NCc3ccc(C(N)=O)cc3)C2)no1 (centres unmarked) [CBK304962] | 88.3
42 | COc1ccc(C(C)C)cc1-c1nccnc1NC1CCC(N)CC1 (centres unmarked) [CBK036703] | 108
43 | CN(CC(=O)Nc1ccn(Cc2cccnc2)n1)c1ccc(C#N)cn1 [CBK306105] | 87.3
44 | O=C(c1ccc2[nH]c(=O)[nH]c2c1)N1CCC(Cn2cncn2)(C2CCCCC2)CC1 [CBK136824] | 104
45 | COc1ccccc1Cc1cccc(C2CCCN2C(=O)CCc2ccccc2)n1 (centres unmarked) [CBK286229] | 108
46 | Nn1c(=O)c2ccccc2n2c(SCC(=O)N(c3ccccc3)c3ccccc3)nnc12 [CBK266621] | 99.3

Row | SMILES | viability at 28.5 h, 10 µM [%]
47 | CN(CC(=O)O)S(=O)(=O)c1cccc2cccc(Cl)c12 [CBK268433] | 107
48 | COCCc1noc(CC2CCN(c3nc(C#N)c(Cl)s3)CC2)n1 [CBK304205] | 102
49 | COc1cc(/C=N/c2cccc3c(/N=C/c4ccc(O)c(OC)c4)cccc23)ccc1O [CBK261224] | 85.8
50 | COc1ccc(C2CC(c3ccccc3O)=NN2)cc1 (centres unmarked) [CBK287281] | 77.8
51 | COc1ccc([C@@]23CCC(N)C[C@@H]2N(C)CC3)c(F)c1OC (some centres unmarked) [CBK067416] | 78.3
52 | Cc1ccc2oc(-c3cccc(NC(=O)c4ccccc4C(=O)O)c3)nc2c1 [CBK300481] | 109
53 | NS(=O)(=O)c1ccc(CCNC(=O)c2cc(Br)cnc2N2CCOCC2)cc1 [CBK076225] | 85.1
54 | O=C(Nc1cccc(S(=O)(=O)N2CCCC2)c1)c1nc[nH]n1 [CBK268353] | 103
55 | COc1cccc(CNc2cccc(C(=O)O)c2)c1OCc1ccc(Cl)cc1Cl [CBK074424] | 91.3
56 | O=S(=O)(NCc1ccc(C(F)(F)F)cc1)c1cccs1 [CBK043744] | 94.5
57 | O=C(Nc1sc2c(c1C(=O)NCc1cccnc1)CCC2)c1ccco1 [CBK269599] | 81
58 | CC(C)c1ccc(/C=C/C(=O)NCc2ccc(S(N)(=O)=O)cc2)cc1 [CBK161511] | 110
59 | O=C(O)c1cccc(NS(=O)(=O)c2cccs2)c1 [CBK270068] | 59.5
60 | Nc1nc(N)c2ncn([C@@H]3O[C@H](CO)[C@H](O)C3O)c2n1 (some centres unmarked) [CBK201275] | 102
61 | O=C(NC1(c2ccccc2)CCCC1)c1ccc(=O)n(CC(=O)N2CCCCC2)c1 [CBK285631] | 90.5
62 | COC(=O)[C@@H]1CN(C(=O)Nc2ccccc2)CCN1S(C)(=O)=O [CBK289611] | 96.9
63 | CCN(C(=O)c1n[nH]c2c1CCC2)C1CCN(C)CC1 [CBK281870] | 102
64 | O=S(=O)(c1csc2ccccc12)N1CCOCC1 [CBK062401] | 90.7
65 | Cn1cc(C(=O)N2CCCC(c3cc4ccccc4cn3)C2)cn1 (centres unmarked) [CBK285155] | 106
66 | Cc1nc2c(c(=O)[nH]1)CCN(Cc1cn(C(C)C)c3ccccc13)C2 [CBK283991] | 105
67 | COc1cc(C(=O)N(Cc2ccco2)c2ccc(O)cc2)cc(OC)c1OC [CBK266315] | 102
68 | N#CC(c1ccc(O)cc1)N1CCOCC1 (centres unmarked) [CBK261659] | 116
69 | CN(c1ncccc1CNC(=O)c1c[nH]c(=O)c(Cl)c1)C1CCCCC1 [CBK307267] | 92.6

Row | SMILES | viability at 28.5 h, 10 µM [%]
70 | O=C(c1cccc2ncccc12)N1CCC(c2ccncc2)CC1 [CBK283798] | 84.2
71 | Cc1cc(CNC(=O)Cn2nc(C)c(C)c2C)on1 [CBK281487] | 95.1
72 | CCOC(=O)c1cnn(C2CCCN(Cc3cccn3C)C2)c1 (centres unmarked) [CBK305114] | 84.3
73 | O=C(NCCc1cccs1)Nc1cccc(CN2CCCCC2)c1 [CBK306882] | 96.1
74 | Cc1ccc(CN2CCCN(C(=O)CCn3cnc4c(cnn4C)c3=O)CC2)cc1 [CBK297793] | 79.8
75 | O=C(/C=C/c1ccco1)Nc1cc2ccccc2cc1NC(=O)/C=C/c1ccco1 [CBK261474] | 99.5
76 | CCc1nc2ccc(C(=O)N3CCN(S(=O)(=O)CC)CC3)cn2c1N(C)CC [CBK145520] | 85.1
77 | Cc1c(Cl)cccc1CNC(=O)CC1SC(NCC2CCCCC2)=NC1=O (centres unmarked) [CBK067017] | 91.7
78 | CCOC(=O)Cc1nnc(-c2cccc(C(F)(F)F)c2)[nH]1 [CBK304385] | 81.1
79 | CCN(CC)CCN(Cc1cc2ccc(C)cc2[nH]c1=O)C(=O)Nc1ccc(Cl)cc1 [CBK068680] | 84.9
80 | Cc1ccc2c(c1)CC(=O)NC21CCN(CCc2noc3ccccc23)CC1 [CBK081072] | 92.2
81 | Cc1c(CC(=O)O)c(=O)oc2cc(OCc3ccc(F)cc3)ccc12 [CBK286674] | 103
82 | O=C(Cn1c(=O)oc2ccccc21)Nc1ccc(N2CCOCC2)c(Cl)c1 [CBK270079] | 102
83 | O=C(Nc1cccc(N2CCCC2)c1)c1cc(C2CC2)on1 [CBK283139] | 87.7
84 | Cc1ccc(C(=O)O)cc1NC(=S)NC1CC1 [CBK288397] | 94.4
85 | c1ccc2oc(-c3cncc(N4CCN(CCN5CCCC5)CC4)n3)cc2c1 [CBK066052] | 97.1
86 | CC(=O)Nc1cccc(-c2ccc(C(=O)NCc3ccc(F)cc3)c(N3CCN(C(=O)c4ccco4)CC3)n2)c1 [CBK106012] | 85.5
87 | CCCc1cc(C(=O)NC(C)(C)CN2CCCC(C)C2)[nH]n1 (centres unmarked) [CBK282467] | 89.1
88 | CC12CN3CC(C)(CN(C1)C3c1cccc([N+](=O)[O-])c1)C2=O (centres unmarked) [CBK009030] | 88.9
89 | N#CCCN(C1CCCCC1)S(=O)(=O)c1ccc(-c2ccc([N+](=O)[O-])cc2)cc1 [CBK261382] | 90.6
